The source of these data is ChEMBL document CHEMBL4402605, “A Chemical Switch for Transforming a Purine Agonist for Toll-like Receptor 7 to a Clinically Relevant Antagonist” (J Med Chem, 2020).

The source made the active and inactive calls. The rule behind the calls is not given here.

The nature of series [1]: Toxicity in C57BL/6 mouse assessed as lung immune infiltration at 15 mg/kg, po administered once daily via gavage for 7 consecutive days and measured post-last dose by H and E staining based histomorphological analysis. Format: organism-based. To be noted: in vivo.
Series [2] can be described thus: Toxicity in C57BL/6 mouse assessed as change in lung alveolar architecture at 15 mg/kg, po administered once daily via gavage for 7 consecutive days and measured post-last dose by H and E staining based histomorphological analysis. In kind it is organism-based. To be noted: in vivo.
Series [3] in a line: Efflux ratio of apparent permeability across basal to apical side over apical to basal side in human Caco2 cells at 10 uM measured after 120 mins by LC-MS/MS analysis. As to conditions: Caco-2. Background: Caco-2 monolayers are a common model of the intestinal barrier.
The subject of series [4] is Mus musculus. As to the kind of experiment: Protection against imiquimod-induced C57BL/6 mouse model of psoriasis assessed as reduction in IFIT1 mRNA expression at 15 mg/kg, po administered via gavage treated 1 day prior to imiquimod application and subsequent daily dosing for 7 consecutive days and measured post-last dose by SYBR green dye based qPCR analysis. In kind it is functional, organism-based. For orientation: Real-time PCR tracks product formation cycle by cycle.

Series [5] in a line: Toxicity in C57BL/6 mouse assessed as liver fatty infiltration at 15 mg/kg, po administered once daily via gavage for 7 consecutive days and measured post-last dose by H and E staining based histomorphological analysis. Format: organism-based. As to conditions: in vivo.
Series [6] is described as follows: Toxicity in C57BL/6 mouse assessed as behavioral changes at 15 mg/kg, po administered once daily via gavage for 7 consecutive days and measured post-last dose by H and E staining based histomorphological analysis. In kind it is organism-based. As to conditions: in vivo.
A short description of series [7]: Toxicity in C57BL/6 mouse assessed as liver inflammation at 15 mg/kg, po administered once daily via gavage for 7 consecutive days and measured post-last dose by H and E staining based histomorphological analysis. In kind it is organism-based. To be noted: in vivo.
The nature of series [8]: Cmax in C57BL/6 mouse at 15 mg/kg, po administered via gavage by LC-MS/MS analysis. In kind it is ADME, organism-based. The arrangement: dose 15 mg/kg, route oral. As to conditions: in vivo.
In series [9] the test system is Mus musculus. Nature of the series: Protection against imiquimod-induced C57BL/6 mouse model of psoriasis assessed as suppression of pustule formation at 15 mg/kg, po administered via gavage treated 1 day prior to imiquimod application and subsequent daily dosing for 7 consecutive days and measured post-last dose by H and E staining based histopathological analysis. Format: functional.

For series [10], the target named is T1, Toll-like receptor 8 (Homo sapiens) (UniProt Q9NR97).
T1 sequence (whole entry): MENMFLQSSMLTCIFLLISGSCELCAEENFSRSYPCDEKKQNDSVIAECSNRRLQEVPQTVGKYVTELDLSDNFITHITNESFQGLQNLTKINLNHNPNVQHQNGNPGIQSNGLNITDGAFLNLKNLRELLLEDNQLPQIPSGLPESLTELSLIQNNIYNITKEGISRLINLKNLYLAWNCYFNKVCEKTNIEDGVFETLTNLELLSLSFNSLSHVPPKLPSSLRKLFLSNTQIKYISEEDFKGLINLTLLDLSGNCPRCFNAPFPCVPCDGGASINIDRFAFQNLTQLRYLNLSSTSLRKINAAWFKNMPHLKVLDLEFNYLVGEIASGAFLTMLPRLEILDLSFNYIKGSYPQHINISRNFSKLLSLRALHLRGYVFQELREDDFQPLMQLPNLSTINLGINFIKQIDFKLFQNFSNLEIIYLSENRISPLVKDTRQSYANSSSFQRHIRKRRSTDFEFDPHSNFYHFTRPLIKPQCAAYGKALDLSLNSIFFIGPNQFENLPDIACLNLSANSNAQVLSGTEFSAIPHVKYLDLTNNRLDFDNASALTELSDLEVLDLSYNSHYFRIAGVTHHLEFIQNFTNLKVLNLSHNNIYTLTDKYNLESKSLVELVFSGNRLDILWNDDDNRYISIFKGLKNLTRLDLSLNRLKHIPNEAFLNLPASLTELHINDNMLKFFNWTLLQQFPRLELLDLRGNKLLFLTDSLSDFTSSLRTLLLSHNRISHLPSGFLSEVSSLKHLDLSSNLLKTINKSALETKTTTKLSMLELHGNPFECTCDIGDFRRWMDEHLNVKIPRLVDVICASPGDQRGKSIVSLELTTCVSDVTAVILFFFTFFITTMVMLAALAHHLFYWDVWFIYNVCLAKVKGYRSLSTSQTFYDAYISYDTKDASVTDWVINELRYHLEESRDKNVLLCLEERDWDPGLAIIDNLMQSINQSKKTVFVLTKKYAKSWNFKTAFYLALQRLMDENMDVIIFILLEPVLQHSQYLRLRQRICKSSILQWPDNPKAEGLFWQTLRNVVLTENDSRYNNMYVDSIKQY
As to the kind of experiment: Antagonist activity at human TLR8 expressed in HEK-Blue cells assessed as inhibition of CL075-induced NFkappaB activation by measuring reduction in SEAP level up to 50 uM after overnight incubation using qunati-blue reagent by SEAP reporter gene-based spectrophotometric method. Format: cell-based.

A short description of series [11]: Volume of distribution at steady state in C57BL/6 mouse at 15 mg/kg, iv by LC-MS/MS analysis. Format: ADME, organism-based. To be noted: in vivo.
Series [12] in a line: Apparent permeability across basal to apical side in human Caco2 cells at 10 uM measured after 120 mins by LC-MS/MS analysis. To be noted: Caco-2.
The nature of series [13]: Toxicity in C57BL/6 mouse assessed as change in liver parenchymal architecture at 15 mg/kg, po administered once daily via gavage for 7 consecutive days and measured post-last dose by H and E staining based histomorphological analysis. To be noted: in vivo. Format: organism-based.

As to `CCN1CCN(CCCn2cnc3c(N4CCN(CC)CC4)ncnc32)CC1`, the Activity entry is on record as “Non-Toxic” in [1]; “Non-Toxic” in series [2]; “Non-Toxic” in series [5]; “Non-Toxic” in series [6]; “Non-Toxic” in series [7]; 100% with Mus musculus [9]. For the same molecule, the Activity result in series [13] is on record as “Non-Toxic”. Further, in series [3], the efflux ratio at 2 h, 10 µM was 2.6. The outcome in the series with Mus musculus [4] was Active. In addition, the peak level in [8] (Cmax) was 2600 ng/mL. The inhibition entry in [10] is “inactive”. Besides, the Vdss in series [11] amounted to 4.2 L/kg. For the same molecule, in series [12], the Papp B→A at 2 h, 10 µM stood at 9.28 ×10⁻⁶ cm/s.

Broadly, the efflux ratio is a quotient of directional permeabilities that is used to spot active efflux. One may read the Cmax as the highest concentration seen after dosing. For orientation: Vdss means a proportionality between amount in the body and measured concentration, not a real space. By Papp B→A is commonly meant the apparent permeability from the basolateral to the apical side of a cell layer.
